In one assay the target is PLK1(h) (Homo sapiens, UniProt P53350). As to the kind of experiment: PLK1 kinase inhibition, radiometric [33P-ATP] assay (IC50 Profiler Express). The note with it: for IC50: 10 μM ATP, 1 μM substrate (casein), 40 minutes at room temperature. Format: biochemical. On the procedure:
(§1) The analysis protocol was as follows. 1 μM substrate (casein), 10 μM ATP and PLK1(h) (5-10 mU) were incubated with 25 mM Tris pH 7.5, 0.02 mM EGTA, 0.66 mg/mL myelin basic protein, 10 mM Mg acetate and [33P-ATP] (specific activity of about 500 cpm/pmol, concentration as required) in a reaction solution with a final volume of 25 μL. The reaction was initiated by adding Mg-ATP mixture. After incubation at room temperature for 40 minutes, the reaction was stopped by adding 5 μL of a 3% phosphoric acid solution. 10 μL of the reaction solution was spotted on a P30 filter mat and washed 3 times for 5 minutes in 75 mM phosphoric acid and once in methanol prior to drying and scintillation counting. The 30 selected protein kinases were ABL1, AKT1, ALK, Aurora A, AXL, AXL (R499C), BRAF (V599E), BTK, c-MER, c-MET, c-Src, CAMKK1, CDK1/cyclin A, EGFR, ERK1, FGFR3, FYN, IGF1R, JAK3, KDR/VEGFR2, LCK, LYN, MEK1, PKA, PLK1, PLK2, PLK3, PLK4/SAK, SYK and TYRO3/SKY4.

Assay [1] concerns 30 selected protein kinases. The assay can be described thus: Selected kinase profiling of 30 protein kinases (Reaction Biology Kinase Hot Spot service). Format: biochemical. The note with it: screening at 10 μM or 30 μM (FIG. 2). On the procedure: as §1

SMILES strings stand for the structures.

PLK1(h), sequence (P53350 whole entry): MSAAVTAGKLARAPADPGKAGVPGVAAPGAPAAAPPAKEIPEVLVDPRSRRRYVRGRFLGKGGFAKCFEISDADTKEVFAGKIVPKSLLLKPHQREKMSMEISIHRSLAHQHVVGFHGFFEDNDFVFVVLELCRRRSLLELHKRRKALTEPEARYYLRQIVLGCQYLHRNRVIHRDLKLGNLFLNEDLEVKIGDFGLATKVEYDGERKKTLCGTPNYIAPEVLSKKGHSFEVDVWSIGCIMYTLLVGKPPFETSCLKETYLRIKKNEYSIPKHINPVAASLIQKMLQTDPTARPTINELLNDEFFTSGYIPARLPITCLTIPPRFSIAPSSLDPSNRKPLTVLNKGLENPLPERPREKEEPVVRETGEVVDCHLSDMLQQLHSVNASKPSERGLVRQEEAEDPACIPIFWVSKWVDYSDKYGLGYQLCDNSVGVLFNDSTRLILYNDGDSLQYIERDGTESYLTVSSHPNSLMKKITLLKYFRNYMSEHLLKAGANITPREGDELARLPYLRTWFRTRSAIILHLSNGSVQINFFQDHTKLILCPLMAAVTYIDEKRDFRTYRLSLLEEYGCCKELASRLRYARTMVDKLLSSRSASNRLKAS

On to `NC(=O)c1nn(-c2ccnc(Nc3ccccc3)c2)cc1OCc1ccccc1` [Compound 13a, 4-(benzyloxy)-1-(2-(phenylamino)pyridin-4-yl)-1H-pyrazole-3-carboxamide], for which the half-inhibitory concentration (IC50) on PLK1(h) was found to be 9890 nM.

For `NC(=O)c1nn(-c2ccnc(Nc3ccccc3)c2)cc1OCc1ccccc1C(F)(F)F` [Compound 13b], the IC50 against PLK1(h) stood at 847 nM. On to `COc1ccccc1Nc1cc(-n2cc(OCc3ccccc3)c(C(N)=O)n2)ccn1` [Compound 14a], for which the IC50 against PLK1(h) amounted to 1020 nM. Still for that read-out and setting: the result for `COc1ccccc1Nc1cc(-n2cc(OCc3ccccc3C(F)(F)F)c(C(N)=O)n2)ccn1` [Compound 14b] reads 1310 nM. For the compound `NC(=O)c1nn(-c2ccnc(Nc3ccccc3)c2)cc1OCc1ccc(CO)cc1Cl` [Compound 15, 4-((2-chloro-4-(hydroxymethyl)benzyl)oxy)-1-(2-(phenylamino)pyridin-4-yl)-1H-pyrazole-3-carboxamide], the “selectivity for PLK1 over other protein kinases (in words)” value in assay [1] is reported as “superior effect of inhibiting PLK1 selectively as compared to other protein kinases”. Also, at PLK1(h), the “inhibitory activity against PLK1 (in words)” value is given as “highest inhibitory activity against PLK1” and 219 nM corresponded to half-maximal inhibition (IC50). With `CN(C)Cc1ccc(COc2cn(-c3ccnc(Nc4ccccc4)c3)nc2C(N)=O)c(Cl)c1` [Compound 16, 4-((2-chloro-4-((dimethylamino)methyl)benzyl)oxy)-1-(2-(phenylamino)pyridin-4-yl)-1H-pyrazole-3-carboxamide], on PLK1(h), the 50% inhibitory concentration (IC50) was determined as 1010 nM. Same read-out and setting: as for `COc1ccccc1Nc1cc(-n2cc(OCc3ccc(CO)cc3Cl)c(C(N)=O)n2)ccn1` [Compound 17], the figure is 312 nM; as for `COc1ccccc1Nc1cc(-n2cc(OCc3ccc(CN(C)C)cc3Cl)c(C(N)=O)n2)ccn1` [Compound 18], 998 nM.

The IC50 is the concentration that inhibits the measured activity by half. A high value points to lower potency.

(Values after patent publication US12552768B2, “Pyridinylpyrazole derivative or pharmaceutically acceptable salt thereof and use thereof” (INDUSTRY-UNIVERSITY COOPERATION FOUNDATION HANYANG …, priority 2021, dated 2026).)
